Molecules are shown by their SMILES.

This assay concerns NL-RLuc virus (recombinant NL4-3 HIV with Renilla Luciferase gene). Nature of the assay: Inhibition of HIV replication (NL-RLuc virus in MT-2 cells, luciferase readout). In kind it is cell-based, Human immunodeficiency virus (HIV). The following applies: MT2, 120 h. Put shortly:
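EC50 derived via median effect equation from at least 2 experiments, using luciferase expression as virus-growth readout. Replication-competent NL-RLuc reporter virus (nef partly replaced by Renilla luciferase) infected MT-2 cells with serial compound dilutions; 5-day incubation in RPMI 1640 plus 10% FBS.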
Consider `Cc1nc(C)c([C@H](OC(C)(C)C)C(=O)O)c(N2CCC(C)(C)CC2)c1-c1ccc2c(c1)CCN(c1nccc(N3C4CCC3COC4)n1)C2` [Example 32, (2S)-2-(tert-Butoxy)-2-[4-(4,4-dimethylpiperidin-1-yl)-2,6-dimethyl-5-[2-(4-{3-oxa-8-azabicyclo[3.2.1]octan-8-yl}pyrimidin-2-yl)-1,2,3,4-tetrahydroisoquinolin-6-yl]pyridin-3-yl]acetic Acid], for which the EC50 stood at 1 nM.

`Cc1nc(C)c([C@H](OC(C)(C)C)C(=O)O)c(N2CCC(C)(C)CC2)c1-c1ccc2c(c1)CCN(c1ccnc(N3CCN(C)CC3)n1)C2` [Example 39, (2S)-2-(tert-Butoxy)-2-[4-(4,4-dimethylpiperidin-1-yl)-2,6-dimethyl-5-{2-[2-(4-methylpiperazin-1-yl)pyrimidin-4-yl]-1,2,3,4-tetrahydroisoquinolin-6-yl}pyridin-3-yl]acetic Acid]: the concentration for a half-maximal effect (EC50) was 5 nM.

For `CC1(C)CCN(c2c(-c3ccc4c(c3)CCN(c3ncnc5c3oc3ccccc35)C4)c(CNCC3CCOCC3)nc(Cl)c2[C@H](OC(C)(C)C)C(=O)O)CC1` [Example 111, (S)-2-(5-(2-(Benzofuro[3,2-d]pyrimidin-4-yl)-1,2,3,4-tetrahydroisoquinolin-6-yl)-2-chloro-4-(4,4-dimethylpiperidin-1-yl)-6-((((tetrahydro-2H-pyran-4-yl)methyl)amino)methyl)pyridin-3-yl)-2-(tert-butoxy)acetic Acid], the EC50 turned out to be 0.7 nM.

On to `Cc1nc(C)c([C@H](OC(C)(C)C)C(=O)O)c(N2CCC(C)(C)CC2)c1-c1ccc2c(c1)CCN(c1nccc(N3C[C@@H](C)O[C@@H](C)C3)n1)C2` [Example 28, (2S)-2-(tert-Butoxy)-2-[5-(2-{4-[(2R,6S)-2,6-dimethylmorpholin-4-yl]pyrimidin-2-yl}-1,2,3,4-tetrahydroisoquinolin-6-yl)-4-(4,4-dimethylpiperidin-1-yl)-2,6-dimethylpyridin-3-yl]acetic Acid], for which the EC50 was 2 nM.

`Cc1nc(C)c([C@H](OC(C)(C)C)C(=O)O)c(N2CCC(C)(C)CC2)c1-c1ccc2c(c1)CCN(c1cc(N3CCOCC3)c(F)cn1)C2` [Example 91, (S)-2-(tert-Butoxy)-2-(4-(4,4-dimethylpiperidin-1-yl)-5-(2-(5-fluoro-4-morpholinopyridin-2-yl)-1,2,3,4-tetrahydroisoquinolin-6-yl)-2,6-dimethylpyridin-3-yl)acetic Acid]: the EC50 came out at 9 nM.

As for `COc1ncccc1-c1cc(C)nc(N2CCc3cc(-c4c(C)nc(C)c([C@H](OC(C)(C)C)C(=O)O)c4N4CCC(C)(C)CC4)ccc3C2)n1` [Example 106, (S)-2-(tert-Butoxy)-2-(4-(4,4-dimethylpiperidin-1-yl)-5-(2-(4-(2-methoxypyridin-3-yl)-6-methylpyrimidin-2-yl)-1,2,3,4-tetrahydroisoquinolin-6-yl)-2,6-dimethylpyridin-3-yl)acetic Acid], the half-maximal effective concentration (EC50) turned out to be 8 nM.

For the molecule `COc1c(N2CCOCC2)ncnc1N1CCc2cc(-c3c(C)nc(C)c([C@H](OC(C)(C)C)C(=O)O)c3N3CCC(C)(C)CC3)ccc2C1` [Example 67, (S)-2-(tert-Butoxy)-2-(4-(4,4-dimethylpiperidin-1-yl)-5-(2-(5-methoxy-6-morpholinopyrimidin-4-yl)-1,2,3,4-tetrahydroisoquinolin-6-yl)-2,6-dimethylpyridin-3-yl)acetic Acid], the half-maximal effective concentration (EC50) was found to be 2 nM.

In the case of `CC1(C)CCN(c2c(-c3ccc4c(c3)CCN(c3nccc(N5CCOCC5)n3)C4)c(N)nc(Cl)c2[C@H](OC(C)(C)C)C(=O)O)CC1` [Example 167, (S)-2-(6-Amino-2-chloro-4-(4,4-dimethylpiperidin-1-yl)-5-(2-(4-morpholinopyrimidin-2-yl)-1,2,3,4-tetrahydroisoquinolin-6-yl)pyridin-3-yl)-2-(tert-butoxy)acetic Acid], the EC50 was 4 nM.

For the molecule `Cc1cccc(Cl)c1CN1CCc2cc(-c3c(CN(C)CC4CCOCC4)nc(Cl)c([C@H](OC(C)(C)C)C(=O)O)c3N3CCC(C)(C)CC3)ccc2C1` [Example 98, (S)-2-(tert-Butoxy)-2-(2-chloro-5-(2-(2-chloro-6-methylbenzyl)-1,2,3,4-tetrahydroisoquinolin-6-yl)-4-(4,4-dimethylpiperidin-1-yl)-6-((methyl((tetrahydro-2H-pyran-4-yl)methyl)amino)methyl)pyridin-3-yl)acetic Acid], the EC50 amounted to 0.7 nM.

`Cc1nc(C)c([C@H](OC(C)(C)C)C(=O)O)c(N2CCC(C)(C)CC2)c1-c1ccc2c(c1)CCN(c1cc(N3CCOCC3)ncn1)C2` [Example 119, (S)-2-(tert-Butoxy)-2-(4-(4,4-dimethylpiperidin-1-yl)-2,6-dimethyl-5-(2-(6-morpholinopyrimidin-4-yl)-1,2,3,4-tetrahydroisoquinolin-6-yl)pyridin-3-yl)acetic Acid]: the concentration giving a half-maximal response (EC50) came to 5 nM.

Regarding `CC1(C)CCN(c2c(-c3ccc4c(c3)CCN(c3ncnc5c3oc3ncccc35)C4)c(CN3CCC4(CCC4)CC3)nc(Cl)c2[C@H](OC(C)(C)C)C(=O)O)CC1` [Example 152, (S)-2-(6-((7-Azaspiro[3.5]nonan-7-yl)methyl)-2-chloro-4-(4,4-dimethylpiperidin-1-yl)-5-(2-(pyrido[3′,2′:4,5]furo[3,2-d]pyrimidin-4-yl)-1,2,3,4-tetrahydroisoquinolin-6-yl)pyridin-3-yl)-2-(tert-butoxy)acetic Acid], the EC50 amounted to 0.1 nM.

For `Cc1cccc(Cl)c1CN1CCc2cc(-c3c(NCCN4CCCCC4)nc(C)c([C@H](OC(C)(C)C)C(=O)O)c3N3CCC(C)(C)CC3)ccc2C1` [Example 4, (S)-2-(tert-Butoxy)-2-(5-(2-(2-chloro-6-methylbenzyl)-1,2,3,4-tetrahydroisoquinolin-6-yl)-4-(4,4-dimethylpiperidin-1-yl)-2-methyl-6-((2-(piperidin-1-yl)ethyl)amino)pyridin-3-yl)acetic Acid], the EC50 came out at 4 nM.

Consider `Cc1nc(C)c([C@H](OC(C)(C)C)C(=O)O)c(N2CCC(C)(C)CC2)c1-c1ccc2c(c1)CCN(c1nccc(N3CCC(CC(C)(C)O)CC3)n1)C2` [Example 145, (S)-2-(tert-Butoxy)-2-(4-(4,4-dimethylpiperidin-1-yl)-5-(2-(4-(4-(2-hydroxy-2-methylpropyl)piperidin-1-yl)pyrimidin-2-yl)-1,2,3,4-tetrahydroisoquinolin-6-yl)-2,6-dimethylpyridin-3-yl)acetic Acid], for which the EC50 amounted to 10 nM.

Turning to `Cc1nc(C)c([C@H](OC(C)(C)C)C(=O)O)c(N2CCC(C)(C)CC2)c1-c1ccc2c(c1)CCN(c1cc(N3CC(C)CC(C)C3)ncn1)C2` (stereo partly drawn) [Example 137, (2S)-2-(tert-Butoxy)-2-(4-(4,4-dimethylpiperidin-1-yl)-5-(2-(6-(3,5-dimethylpiperidin-1-yl)pyrimidin-4-yl)-1,2,3,4-tetrahydroisoquinolin-6-yl)-2,6-dimethylpyridin-3-yl)acetic Acid], the EC50 was found to be 7 nM.

Regarding `Cc1nc(C)c([C@H](OC(C)(C)C)C(=O)O)c(N2CCC(C)(C)CC2)c1-c1ccc2c(c1)CCN(c1cc(C(=O)O)ncn1)C2` [Example 127, (S)-6-(6-(5-(tert-Butoxy(carboxy)methyl)-4-(4,4-dimethylpiperidin-1-yl)-2,6-dimethylpyridin-3-yl)-3,4-dihydroisoquinolin-2(1H)-yl)pyrimidine-4-carboxylic Acid], the EC50 turned out to be 1280 nM.

For the molecule `Cc1nc(C)c([C@H](OC(C)(C)C)C(=O)O)c(N2CCC(C)(C)CC2)c1-c1ccc2c(c1)CCN(c1nccc(N3CCC(C(C)(C)O)CC3)n1)C2` [Example 70, (S)-2-(tert-Butoxy)-2-(4-(4,4-dimethylpiperidin-1-yl)-5-(2-(4-(4-(2-hydroxypropan-2-yl)piperidin-1-yl)pyrimidin-2-yl)-1,2,3,4-tetrahydroisoquinolin-6-yl)-2,6-dimethylpyridin-3-yl)acetic Acid], the EC50 was 5 nM.

Turning to `Cc1nc(CO)c(-c2ccc3c(c2)CCN(c2nccc(-c4cccnc4)n2)C3)c(N2CCC(C)(C)CC2)c1[C@H](OC(C)(C)C)C(=O)O` [Example 164, (S)-2-(tert-Butoxy)-2-(4-(4,4-dimethylpiperidin-1-yl)-6-(hydroxymethyl)-2-methyl-5-(2-(4-(pyridin-3-yl)pyrimidin-2-yl)-1,2,3,4-tetrahydroisoquinolin-6-yl)pyridin-3-yl)acetic Acid], the EC50 was 2 nM.

`Cc1ncc(-c2ccc3c(c2)CCN(c2nccc(-c4cnccn4)n2)C3)c(N2CCC(C)(C)CC2)c1[C@H](OC(C)(C)C)C(=O)O` [Example 147, (S)-2-(tert-Butoxy)-2-(4-(4,4-dimethylpiperidin-1-yl)-2-methyl-5-(2-(4-(pyrazin-2-yl)pyrimidin-2-yl)-1,2,3,4-tetrahydroisoquinolin-6-yl)pyridin-3-yl)acetic Acid]: the concentration for a half-maximal effect (EC50) came to 2 nM.

Turning to `Cc1cccc(Cl)c1CN1CCc2cc(-c3c(NCCCN4CCCCC4)nc(C)c([C@H](OC(C)(C)C)C(=O)O)c3N3CCC(C)(C)CC3)ccc2C1` [Example 10, (S)-2-(tert-Butoxy)-2-(5-(2-(2-chloro-6-methylbenzyl)-1,2,3,4-tetrahydroisoquinolin-6-yl)-4-(4,4-dimethylpiperidin-1-yl)-2-methyl-6-((3-(piperidin-1-yl)propyl)amino)pyridin-3-yl)acetic Acid], the EC50 came out at 2 nM.

As to `Cc1nc(C)c([C@H](OC(C)(C)C)C(=O)O)c(N2CCC(C)(C)CC2)c1-c1ccc2c(c1)CCN(c1nccc(O)n1)C2` [Example 80, (S)-2-(tert-Butoxy)-2-(4-(4,4-dimethylpiperidin-1-yl)-5-(2-(4-hydroxypyrimidin-2-yl)-1,2,3,4-tetrahydroisoquinolin-6-yl)-2,6-dimethylpyridin-3-yl)acetic Acid], the EC50 was determined as 380 nM.

As for `CCOc1cc(N2CCc3cc(-c4c(C)nc(C)c([C@H](OC(C)(C)C)C(=O)O)c4N4CCC(C)(C)CC4)ccc3C2)ncn1` [Example 126, (S)-2-(tert-Butoxy)-2-(4-(4,4-dimethylpiperidin-1-yl)-5-(2-(6-ethoxypyrimidin-4-yl)-1,2,3,4-tetrahydroisoquinolin-6-yl)-2,6-dimethylpyridin-3-yl)acetic Acid], the EC50 was determined as 5 nM.

For orientation: EC50 means the concentration giving half of the maximal effect.

The record behind these values is patent publication US20200016136A1 (VIIV HEALTHCARE UK (NO. 5) LIMITED, priority 2017, published 2020).
